In patent US20120283190A1, “ENDOTHELIN INHIBITORS FOR THE TREATMENT OF RAPIDLY PROGRESSIVE GLOMERULONEPHRITIS” (Institut National De La Santé Et De La Recherche Medicale …, priority 2009, published 2012):
Where a SMILES comes first, the peptide text is derived from it. [ ]: non-standard residue; d: D form.

How the values were obtained:
[1] = system: experimental model of RPGN; experiment: anti-GBM RPGN model, continuous infusion of selective ETA or ETB antagonist by subcutaneous osmotic minipumps; type: in vivo, C57B1/6J mice; settings: 100 nmol·kg−1·day−1 by minipump; for plasma urea concentration (index of renal failure): vehicle 34.3±6.1 mmol/L
[2] = system: murine podocyte cell line; experiment: migration assay in cultured podocytes (Ibidi Culture-Insert, gap coverage); type: cell-based, mouse; settings: coverage of 500 μm gap after 20 hours of culture; vs vehicle (RPMI with DMSO)
Method: Selected experiments (migration studies) were performed in a murine podocyte cell line (Schiwek D et al, 2004) derived from isolated from kidneys of Immorto-Mouse® mice (Charles River, St. Louis, Mo., USA), carrying a temperature-sensitive mutant of the immortalizing SV40 large T antigen under control of the interferon-gamma (INF-γ)-inducible H-2 Kb promoter. Migration assays were performed in μ-Dish 35 mm high with Culture-Insert (Ibidi). Ibidi's wounding inserts were used for cell migration or cell invasion studies. […] The inserts can be inserted into any bio-compatible surface and used to culture one or multiple cell lines. These inserts have two wells that create 2 distinct cell patches with a defined gap of 500 μm. The coverage of this gap after 20 hours of culture was assessed in the presence of the selective ETA antagonist BQ123 or the ETB antagonist BQ 788 (Calbiochem) or vehicle (RPMI with DMSO).

[3] = system: accelerated anti-GBM RPGN model; experiment: accelerated anti-GBM RPGN model, bosentan mixed with food; type: in vivo, C57B1/6J mice; settings: bosentan 50 mg/kg/d oral in food
Method: Male and female C57B1/6 mice weighing 20-25 g, 10 weeks old, purchased from Charles River France, were housed in a room with a 12 h light-dark cycle with water and food ad libido. […] The animals were sacrificed by injection of pentobarbital (100 mg/kg i.p.)
The accelerated anti-GBM RPGN model was used, as previously described in Topham P S et al, 1999 and Lloyd C M et al, 1997. Briefly, C57B1/6J male mice were given subcutaneous injections of 200 μg normal sheep IgG (100 μl into each flank of normal sheep IgG (Sigma) diluted to 1 mg/ml in a solution of 50% Freund's complete adjuvent and 50% saline). Six days later (day 1), GN was induced by intravenous injection of 50 μL sheep anti-glomerular basement membrane (GBM) serum diluted to 70 mg/ml in saline. Serum injections were repeated twice (on days 2 and 3), with the serum volume increased to 250 μL. From days 0 to 14, mice were given bosentan, an orally active endothelin antagonist (designated chemically as 4-tert-butyl-N-[6-(2-hydroxy-ethoxy)-5-(2-methoxy-phenoxy)-[2,2′]-bipyrimidin-4-yl]-benzenesulfonamide monohydrate). We manually grinded 62.5 mg film-coated tablets of […] ® (bosentan) for oral administration and mixed them with powdered food supplied to the animals at an active dose of 50 mg/kg/d for 14 days as previously described^3. […] The treated group (n=7) was compared to vehicle-treated animals (n=6). […]
Normalized albumin urinary excretion was evaluated from urine samples collected for 18 h in metabolic cages (Techniplast). Urinary creatinine and albumin were quantified spectrophotometrically using colorimetric methods (Olympus).
For light microscopy, half mouse kidneys were fixed and embedded in paraffin, and 3 μm-thick sections were cut. Histopathological changes were evaluated using Masson's trichrome coloration by an examiner who was blind to the experimental conditions. The proportion of crescentic glomeruli was determined by examination of at least 50 glomeruli per section.

## CC(C)C[C@@H]1NC(=O)[C@@H](C(C)C)NC(=O)[C@@H]2CCCN2C(=O)[C@@H](CC(=O)O)NC(=O)[C@@H](Cc2c[nH]c3ccccc23)NC1=O [BQ123] (cyclo(L[dW][dD]P[dV]))
[1]
  plasma urea concentration (index of renal failure): 17.5 ± 2.5 mmol/L

## CCCC[C@@H](NC(=O)[C@@H](Cc1cn(C(=O)OC)c2ccccc12)NC(=O)[C@H](CC(C)(C)C)NC(=O)N1[C@H](C)CCC[C@@H]1C)C(=O)O [BQ788]
[2]
  migration of cultured podocytes: prominent action
[1]; day 7 after infusion of the anti-GBM serum, versus PBS-treated animals
  Albuminuria normalized to creatininuria: prominent action
[1]
  plasma urea concentration (index of renal failure): 12.3 ± 2.1 mmol/L

## COc1ccccc1Oc1c(NS(=O)(=O)c2ccc(C(C)(C)C)cc2)nc(-c2ncccn2)nc1OCCO [bosentan, 4-tert-butyl-N-[6-(2-hydroxy-ethoxy)-5-(2-methoxy-phenoxy)-[2,2′]-bipyrimidin-4-yl]-benzenesulfonamide monohydrate]
[3]; day 5 after infusion of the anti-GBM serum, p=0.0053
  Albuminuria normalized to creatininuria, fold lower than in vehicle-treated counterparts: 5.8 fold
[3]; day 14 after infusion of the anti-GBM serum, p=0.0057
  crescentic glomeruli, fold less than in vehicle-treated counterparts: 14 fold
[3]; mice with anti-GBM serum-induced RPGN
  fibrinogen deposition in glomeruli with disappearance of podocin positive podocytes: blunted
